Literature values in PMC9050811 (RSC Advances, 2020).

Key:
[1] = test system: DNA supercoiling; conditions: read-out: IC50 in the DNA supercoiling assay; cited from earlier work
[2] = test system: MTB; conditions: cited from earlier work
[3] = test system: MTB H37Rv; conditions: cited from earlier work

Compound	IC50 [1] [nM]	MTB MIC [2] [µM]	MTB MIC against H37Rv [3] [µg/mL]
O=c1nc(N2CCN(C(=S)Nc3ccc(Cl)cc3)CC2)sc2ccc([N+](=O)[O-])cc12 [N-(4-chlorophenyl)-4-(6-nitro-4-oxo-4H-benzo[e][1,3]thiazin-2-yl)piperazine-1-carbothioamide]	510	4.41	
O=S(=O)(c1ccccc1)n1cc(CN2CCN(c3nc4ccccc4c4ccccc34)CC2)nn1 [G, 6-(4-((1-(phenylsulfonyl)-1H-1,2,3-triazol-4-yl)methyl)piperazin-1-yl)phenanthridine]			1.56
COc1cnc2ccc(=O)n(CCN3CCN(C(=O)Nc4ccc([N+](=O)[O-])cc4)CC3)c2c1 [4-(2-(7-methoxy-2-oxo-1,5-naphthyridin-1-(2H)-yl)ethyl)-N-(4-nitrophenyl)piperazine-1-carboxamide]	290	3.45	
c1ccc(N2CCN(c3nc4ccccc4c4ccccc34)CC2)nc1 [H, 6-(4-(pyridin-2-yl)piperazin-1-yl)phenanthridine]			1.56
